# Experiments:
# ABUTH (Velvetleaf) = assay: Postemergence herbicidal evaluation; assay type: in vivo, Abutilon theophrasti; details: for ABUTH herbicidal rating: postemergence
# Outline: (§1)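 ~2-wk seedlings; postemergence spray, 40 psi; vehicle 1:1 acetone:water + 0.5% Tween 20; rate ≈0.0156–0.500 kg/ha; greenhouse hold; scored 4–5 wk after treatment, 0–9 scale vs control; repeat tests averaged.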
# AMBEL (Ragweed, Common) [1] = assay: Postemergence herbicidal evaluation; assay type: in vivo, Ambrosia artemisifolia; details: for AMBEL herbicidal rating: postemergence
# Outline: as §1
# [2] = system: CHEAL (Lambsquarters, Common); assay: Postemergence herbicidal evaluation; assay type: in vivo, Chenopodium album; details: for CHEAL herbicidal rating: postemergence
# Outline: as §1
# ECHCG (Barnyardgrass) = assay: Postemergence herbicidal evaluation; assay type: in vivo, Echinochloa crus-galli; details: for ECHCG herbicidal rating: postemergence
# Outline: as §1
# [3] = system: GLXMAW (Soybean, Williams); assay: Postemergence herbicidal evaluation; assay type: in vivo, Glycine max, (L.) Merr. cv Williams; details: for GLXMAW herbicidal rating: postemergence
# Outline: as §1
# ORYSAT (Rice, Tebonnet) = assay: Postemergence herbicidal evaluation; assay type: in vivo, Oryza sativa, (L.) Tebonnet; details: for ORYSAT herbicidal rating: postemergence
# Outline: as §1
# ZEAMX (Corn, Field) = assay: Postemergence herbicidal evaluation; assay type: in vivo, Zea mays; details: for ZEAMX herbicidal rating: postemergence
# Outline: as §1
# AMBEL (Ragweed, Common) [4] = assay: Preemergence herbicidal evaluation; assay type: in vivo, Ambrosia artemisifolia; details: rated 4-5 weeks after treatment; for AMBEL rating: preemergence, 0-9 scale
# Outline: (§2)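 Rating at 4–5 wk post-spray on a 0–9 visual scale vs control. Application: aqueous acetone, ~0.0156–0.500 kg/ha, to soil surface after seeding, preemergence.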
# CASOB (Sicklepod) = assay: Preemergence herbicidal evaluation; assay type: in vivo, Cassia obtusifolia; details: rated 4-5 weeks after treatment; for CASOB rating: preemergence, 0-9 scale
# Outline: as §2
# [5] = system: CHEAL (Lambsquarters, Common); assay: Preemergence herbicidal evaluation; assay type: in vivo, Chenopodium album; details: rated 4-5 weeks after treatment; for CHEAL rating: preemergence, 0-9 scale
# Outline: as §2
# GALAP (Galium) = assay: Preemergence herbicidal evaluation; assay type: in vivo, Galium aparine; details: rated 4-5 weeks after treatment; for GALAP rating: preemergence, 0-9 scale
# Outline: as §2
# CYPSE (Flatsedge) [6] = assay: Preemergence weed control under flooded paddy conditions; assay type: in vivo, Cyperus serotinus; details: rated 3-4 weeks after treatment
# Outline: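 Using flooded silt loam (water 1.5 to 3 cm deep), seeds sown in the top 0.5 cm were exposed preemergence to compound pipetted into the flood at about 0.0313 to 0.500 kg/ha. Effects were scored 0-9 by eye three to four weeks later.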
# CYPIR (Rice Flatsedge) = assay: Postemergence weed control under flooded paddy conditions; assay type: in vivo, Cyperus iria; details: postemergence weeds
# Outline: (§3)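 Weeds 3 to 5 cm tall and rice seedlings at the 1.5 to 2.5 leaf stage were flooded, with water held 1.5 to 3 cm above the soil. Compounds in 50/50 v/v aqueous/acetone went into the flood water at about 0.0313 to 0.500 kg/ha. Visual 0-9 ratings versus control were made 3 to 4 weeks later.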
# CYPSE (Flatsedge) [7] = assay: as above; assay type: in vivo, Cyperus serotinus; details: postemergence weeds
# Outline: as §3
# [8] = rate 0.0313 kg/ha, 3-4 weeks after treatment
# [9] = rate 0.0625 kg/ha, 3-4 weeks after treatment
# [10] = rate 0.1250 kg/ha, 3-4 weeks after treatment
# [11] = rate 0.2500 kg/ha, 3-4 weeks after treatment
# [12] = Rate 0.0313 kg/ha, rated 3 to 4 weeks after treatment
# [13] = Rate 0.0625 kg/ha, rated 3 to 4 weeks after treatment
# [14] = Rate 0.1250 kg/ha, rated 3 to 4 weeks after treatment
# [15] = Rate 0.2500 kg/ha, rated 3 to 4 weeks after treatment
smiles,measurement,setting,value
"Cn1c(C(F)(F)F)cc(=O)n(-c2cc(N=C3SCC(=O)N3[C@@H](Cc3ccccc3)C(=O)O)c(Cl)cc2F)c1=O [Compound 53, α-Benzyl-2-{{2-chloro-5-[3,6-dihydro-3-methyl-2,6-dioxo-4-(trifluoromethyl)-1(2H)-pyrimidinyl]-4-fluorophenyl}imino}-4-oxo-3-thiazolidineacetic acid, L-]",Postemergence herbicidal rating ABUTH,ABUTH (Velvetleaf); Rate 0.0158 kg/ha,9.0
same,Postemergence herbicidal rating ABUTH,ABUTH (Velvetleaf); Rate 0.0315 kg/ha,9.0
same,Postemergence herbicidal rating ABUTH,ABUTH (Velvetleaf); Rate 0.0630 kg/ha,9.0
same,Postemergence herbicidal rating AMBEL,"AMBEL (Ragweed, Common) [1]; Rate 0.0158 kg/ha",9.0
same,Postemergence herbicidal rating AMBEL,"AMBEL (Ragweed, Common) [1]; Rate 0.0315 kg/ha",9.0
same,Postemergence herbicidal rating AMBEL,"AMBEL (Ragweed, Common) [1]; Rate 0.0630 kg/ha",9.0
same,Postemergence herbicidal rating CHEAL,[2]; Rate 0.0158 kg/ha,7.0
same,Postemergence herbicidal rating CHEAL,[2]; Rate 0.0315 kg/ha,9.0
same,Postemergence herbicidal rating CHEAL,[2]; Rate 0.0630 kg/ha,9.0
same,Postemergence herbicidal rating ECHCG,ECHCG (Barnyardgrass); Rate 0.0158 kg/ha,2.0
same,Postemergence herbicidal rating ECHCG,ECHCG (Barnyardgrass); Rate 0.0315 kg/ha,3.0
same,Postemergence herbicidal rating ECHCG,ECHCG (Barnyardgrass); Rate 0.0630 kg/ha,9.0
same,Postemergence herbicidal rating GLXMAW,[3]; Rate 0.0158 kg/ha,9.0
same,Postemergence herbicidal rating GLXMAW,[3]; Rate 0.0315 kg/ha,9.0
same,Postemergence herbicidal rating GLXMAW,[3]; Rate 0.0630 kg/ha,9.0
same,Postemergence herbicidal rating ORYSAT,"ORYSAT (Rice, Tebonnet); Rate 0.0158 kg/ha",2.0
same,Postemergence herbicidal rating ORYSAT,"ORYSAT (Rice, Tebonnet); Rate 0.0315 kg/ha",2.5
same,Postemergence herbicidal rating ORYSAT,"ORYSAT (Rice, Tebonnet); Rate 0.0630 kg/ha",3.5
same,Postemergence herbicidal rating ZEAMX,"ZEAMX (Corn, Field); Rate 0.0158 kg/ha",5.5
same,Postemergence herbicidal rating ZEAMX,"ZEAMX (Corn, Field); Rate 0.0315 kg/ha",7.5
same,Postemergence herbicidal rating ZEAMX,"ZEAMX (Corn, Field); Rate 0.0630 kg/ha",8.0
same,Preemergence herbicidal rating AMBEL,"AMBEL (Ragweed, Common) [4]; rate 0.0313 kg/ha",0.0
same,Preemergence herbicidal rating AMBEL,"AMBEL (Ragweed, Common) [4]; rate 0.0625 kg/ha",9.0
same,Preemergence herbicidal rating AMBEL,"AMBEL (Ragweed, Common) [4]; rate 0.1250 kg/ha",9.0
same,Preemergence herbicidal rating AMBEL,"AMBEL (Ragweed, Common) [4]; rate 0.2500 kg/ha",9.0
same,Preemergence herbicidal rating CASOB,CASOB (Sicklepod); rate 0.0313 kg/ha,0.0
same,Preemergence herbicidal rating CASOB,CASOB (Sicklepod); rate 0.0625 kg/ha,0.0
same,Preemergence herbicidal rating CASOB,CASOB (Sicklepod); rate 0.1250 kg/ha,1.0
same,Preemergence herbicidal rating CASOB,CASOB (Sicklepod); rate 0.2500 kg/ha,1.0
same,Preemergence herbicidal rating CHEAL,[5]; rate 0.0313 kg/ha,9.0
same,Preemergence herbicidal rating CHEAL,[5]; rate 0.0625 kg/ha,9.0
same,Preemergence herbicidal rating CHEAL,[5]; rate 0.1250 kg/ha,9.0
same,Preemergence herbicidal rating CHEAL,[5]; rate 0.2500 kg/ha,9.0
same,Preemergence herbicidal rating GALAP,GALAP (Galium); rate 0.0313 kg/ha,0.0
same,Preemergence herbicidal rating GALAP,GALAP (Galium); rate 0.0625 kg/ha,0.0
same,Preemergence herbicidal rating GALAP,GALAP (Galium); rate 0.1250 kg/ha,0.0
same,Preemergence herbicidal rating GALAP,GALAP (Galium); rate 0.2500 kg/ha,7.0
same,Herbicidal rating CYPSE,CYPSE (Flatsedge) [6]; 0.0313 kg/ha,0.0
same,Herbicidal rating CYPSE,CYPSE (Flatsedge) [6]; 0.0625 kg/ha,0.0
same,Herbicidal rating CYPSE,CYPSE (Flatsedge) [6]; 0.1250 kg/ha,0.0
same,Herbicidal rating CYPSE,CYPSE (Flatsedge) [6]; 0.2500 kg/ha,0.0
same,Herbicidal rating CYPIR,CYPIR (Rice Flatsedge); [8],2.0
same,Herbicidal rating CYPIR,CYPIR (Rice Flatsedge); [9],2.0
same,Herbicidal rating CYPIR,CYPIR (Rice Flatsedge); [10],9.0
same,Herbicidal rating CYPIR,CYPIR (Rice Flatsedge); [11],9.0
same,Herbicidal rating CYPSE,CYPSE (Flatsedge) [7]; [8],0.0
same,Herbicidal rating CYPSE,CYPSE (Flatsedge) [7]; [9],0.0
same,Herbicidal rating CYPSE,CYPSE (Flatsedge) [7]; [10],0.0
same,Herbicidal rating CYPSE,CYPSE (Flatsedge) [7]; [11],0.0
"COC(=O)CC1SC(=Nc2cc(-n3c(=O)cc(C(F)(F)F)n(C)c3=O)c(F)cc2Cl)N(C)C1=O (stereo not drawn) [Compound 88, Methyl 2-{{2-chloro-5-[3,6-dihydro-3-methyl-2,6-dioxo-4-(trifluoromethyl)-1(2H)-pyrimidinyl]-4-fluorophenyl}imino}-3-methyl-4-oxo-5-thiazolidineacetate]",ABUTH herbicidal rating,ABUTH (Velvetleaf); rate 0.0158 kg/ha,9.0
same,ABUTH herbicidal rating,ABUTH (Velvetleaf); rate 0.0315 kg/ha,9.0
same,ABUTH herbicidal rating,ABUTH (Velvetleaf); rate 0.0630 kg/ha,9.0
same,AMBEL herbicidal rating,"AMBEL (Ragweed, Common) [1]; rate 0.0158 kg/ha",9.0
same,AMBEL herbicidal rating,"AMBEL (Ragweed, Common) [1]; rate 0.0315 kg/ha",9.0
same,AMBEL herbicidal rating,"AMBEL (Ragweed, Common) [1]; rate 0.0630 kg/ha",9.0
same,CHEAL herbicidal rating,[2]; rate 0.0158 kg/ha,9.0
same,CHEAL herbicidal rating,[2]; rate 0.0315 kg/ha,9.0
same,CHEAL herbicidal rating,[2]; rate 0.0630 kg/ha,9.0
same,ECHCG herbicidal rating,ECHCG (Barnyardgrass); rate 0.0158 kg/ha,1.0
same,ECHCG herbicidal rating,ECHCG (Barnyardgrass); rate 0.0315 kg/ha,7.0
same,ECHCG herbicidal rating,ECHCG (Barnyardgrass); rate 0.0630 kg/ha,7.0
same,GLXMAW herbicidal rating,[3]; rate 0.0158 kg/ha,8.5
same,GLXMAW herbicidal rating,[3]; rate 0.0315 kg/ha,8.5
same,GLXMAW herbicidal rating,[3]; rate 0.0630 kg/ha,9.0
same,ORYSAT herbicidal rating,"ORYSAT (Rice, Tebonnet); rate 0.0158 kg/ha",2.0
same,ORYSAT herbicidal rating,"ORYSAT (Rice, Tebonnet); rate 0.0315 kg/ha",5.5
same,ORYSAT herbicidal rating,"ORYSAT (Rice, Tebonnet); rate 0.0630 kg/ha",6.0
same,ZEAMX herbicidal rating,"ZEAMX (Corn, Field); rate 0.0158 kg/ha",7.5
same,ZEAMX herbicidal rating,"ZEAMX (Corn, Field); rate 0.0315 kg/ha",8.5
same,ZEAMX herbicidal rating,"ZEAMX (Corn, Field); rate 0.0630 kg/ha",9.0
same,AMBEL rating,"AMBEL (Ragweed, Common) [4]; 0.0156 kg/ha",0.0
same,AMBEL rating,"AMBEL (Ragweed, Common) [4]; 0.0313 kg/ha",0.0
same,AMBEL rating,"AMBEL (Ragweed, Common) [4]; 0.0625 kg/ha",7.0
same,AMBEL rating,"AMBEL (Ragweed, Common) [4]; 0.1250 kg/ha",9.0
same,AMBEL rating,"AMBEL (Ragweed, Common) [4]; 0.2500 kg/ha",9.0
same,CASOB rating,CASOB (Sicklepod); 0.0156 kg/ha,0.0
same,CASOB rating,CASOB (Sicklepod); 0.0313 kg/ha,0.0
same,CASOB rating,CASOB (Sicklepod); 0.0625 kg/ha,0.0
same,CASOB rating,CASOB (Sicklepod); 0.1250 kg/ha,3.0
same,CASOB rating,CASOB (Sicklepod); 0.2500 kg/ha,9.0
same,CHEAL rating,[5]; 0.0156 kg/ha,7.0
same,CHEAL rating,[5]; 0.0313 kg/ha,9.0
same,CHEAL rating,[5]; 0.0625 kg/ha,9.0
same,CHEAL rating,[5]; 0.1250 kg/ha,9.0
same,CHEAL rating,[5]; 0.2500 kg/ha,9.0
same,GALAP rating,GALAP (Galium); 0.0156 kg/ha,0.0
same,GALAP rating,GALAP (Galium); 0.0313 kg/ha,0.0
same,GALAP rating,GALAP (Galium); 0.0625 kg/ha,3.0
same,GALAP rating,GALAP (Galium); 0.1250 kg/ha,3.0
same,GALAP rating,GALAP (Galium); 0.2500 kg/ha,9.0
same,CYPSE herbicidal effect rating,CYPSE (Flatsedge) [6]; 0.0313 kg/ha,3.0
same,CYPSE herbicidal effect rating,CYPSE (Flatsedge) [6]; 0.0625 kg/ha,5.0
same,CYPSE herbicidal effect rating,CYPSE (Flatsedge) [6]; 0.1250 kg/ha,7.0
same,CYPSE herbicidal effect rating,CYPSE (Flatsedge) [6]; 0.2500 kg/ha,7.0
same,Herbicidal rating CYPIR,CYPIR (Rice Flatsedge); [12],0.0
same,Herbicidal rating CYPIR,CYPIR (Rice Flatsedge); [13],0.0
same,Herbicidal rating CYPIR,CYPIR (Rice Flatsedge); [14],0.0
same,Herbicidal rating CYPIR,CYPIR (Rice Flatsedge); [15],0.0
same,Herbicidal rating CYPSE,CYPSE (Flatsedge) [7]; [12],3.0
same,Herbicidal rating CYPSE,CYPSE (Flatsedge) [7]; [13],5.0
same,Herbicidal rating CYPSE,CYPSE (Flatsedge) [7]; [14],7.0
same,Herbicidal rating CYPSE,CYPSE (Flatsedge) [7]; [15],7.0

# Source: patent US20020137929A1, “1 - (3-heterocyclylphenyl) isothiourea, -isourea, -guanidine and -amidine herbicidal agents” (Intellectual Property Department, BASF Aktiengesellschaft, priority 1998, published 2002)
